Data reported in ChEMBL document CHEMBL5233284, “Design, synthesis and anticancer evaluation of 3-methyl-1H-indazole derivatives as novel selective bromodomain-containing protein 4 inhibitors” (Bioorg Med Chem, 2021).
Calls of active or inactive are those of the source. The calls are words filed in the database; no cut-off is given here.

Experiments:
MV4-11 [1] = experiment: Antiproliferative activity against human MV4-11 cells assessed as inhibition of cell growth at 10 uM incubated for 96 to 120 hrs by celltiter glo assay relative to control; format: functional; settings: for inhibition at 10 µM: Homo sapiens, MV4-11, time 96-120 hrs
[2] = target: T1, Bromodomain-containing protein 4 (Homo sapiens, UniProt O60885); settings: dose 200.0 µM, time 30-60 min
Description: Binding affinity to BRD4-BD1 (unknown origin) assessed as change in melting temperature at 200 uM incubated for 30 to 60 mins by SYPRO orange dye based thermal shift assay

[3] = target: T1, Bromodomain-containing protein 4; experiment: Inhibition of BRD4-BD1 (unknown origin) using C-terminal biotinylated tetra-acetylated histone H4 peptide as substrate incubated for 2.5 hrs by alphascreen assay
CWR22R [4] = experiment: Antiproliferative activity against human 22Rv1 cells assessed as inhibition of cell growth at 10 uM incubated for 96 to 120 hrs by celltiter glo assay relative to control; format: functional; settings: for inhibition at 10 µM: Homo sapiens, 22Rv1, time 96-120 hrs
MV4-11 [5] = experiment: Antiproliferative activity against human MV4-11 cells assessed as inhibition of cell growth incubated for 96 to 120 hrs by celltiter glo assay; format: functional, cell-based
CWR22R [6] = experiment: Antiproliferative activity against human 22Rv1 cells assessed as inhibition of cell growth incubated for 96 to 120 hrs by celltiter glo assay; format: functional, cell-based
[7] = target: Histone acetyltransferase p300 (Homo sapiens) (UniProt Q09472); experiment: Binding affinity to EP300 (unknown origin) assessed as change in melting temperature at 200 uM incubated for 30 to 60 mins by SYPRO orange dye based thermal shift assay; settings: time 30-60 min
[8] = target: T1, Bromodomain-containing protein 4; experiment: Inhibition of BRD4 BD1 in human MV4-11 cells assessed as inhibition of c-myc protein expression at 20 uM incubated for 48 hrs by Western blot analysis; format: cell-based
[9] = target: Chromatin remodeling regulator CECR2 (Homo sapiens) (UniProt Q9BXF3); experiment: Binding affinity to CECR2 (unknown origin) assessed as change in melting temperature at 200 uM incubated for 30 to 60 mins by SYPRO orange dye based thermal shift assay; settings: time 30-60 min
[10] = target: SWI/SNF-related matrix-associated actin-dependent regulator of chromatin subfamily A member 2 (Homo sapiens) (UniProt P51531); experiment: Binding affinity to SMARCA2A (unknown origin) assessed as change in melting temperature at 200 uM incubated for 30 to 60 mins by SYPRO orange dye based thermal shift assay; settings: time 30-60 min
[11] = target: Bromodomain-containing protein 2 (Homo sapiens) (UniProt P25440); experiment: Binding affinity to BRD2 BD1 (unknown origin) assessed as change in melting temperature at 200 uM incubated for 30 to 60 mins by SYPRO orange dye based thermal shift assay; settings: time 30-60 min
[12] = target: Histone acetyltransferase KAT2B (Homo sapiens) (UniProt Q92831); experiment: Binding affinity to PCAF (unknown origin) assessed as change in melting temperature at 200 uM incubated for 30 to 60 mins by SYPRO orange dye based thermal shift assay; settings: time 30-60 min
[13] = target: CREB-binding protein (Homo sapiens) (UniProt Q92793); experiment: Binding affinity to CBP (unknown origin) assessed as change in melting temperature at 200 uM incubated for 30 to 60 mins by SYPRO orange dye based thermal shift assay; settings: time 30-60 min
[14] = target: Bromodomain adjacent to zinc finger domain protein 2B (Homo sapiens) (UniProt Q9UIF8); experiment: Binding affinity to BAZ2B (unknown origin) assessed as change in melting temperature at 200 uM incubated for 30 to 60 mins by SYPRO orange dye based thermal shift assay; settings: time 30-60 min
[15] = target: Bromodomain-containing protein 3 (Homo sapiens) (UniProt Q15059); experiment: Binding affinity to BRD3 BD1 (unknown origin) assessed as change in melting temperature at 200 uM incubated for 30 to 60 mins by SYPRO orange dye based thermal shift assay; settings: time 30-60 min
[16] = target: T1, Bromodomain-containing protein 4; experiment: Inhibition of BRD4-BD1 (unknown origin) at 60 uM relative to control

Chain of SWI/SNF-related matrix-associated actin-dependent regulator of chromatin subfamily A member 2 (Homo sapiens) (P51531 whole entry): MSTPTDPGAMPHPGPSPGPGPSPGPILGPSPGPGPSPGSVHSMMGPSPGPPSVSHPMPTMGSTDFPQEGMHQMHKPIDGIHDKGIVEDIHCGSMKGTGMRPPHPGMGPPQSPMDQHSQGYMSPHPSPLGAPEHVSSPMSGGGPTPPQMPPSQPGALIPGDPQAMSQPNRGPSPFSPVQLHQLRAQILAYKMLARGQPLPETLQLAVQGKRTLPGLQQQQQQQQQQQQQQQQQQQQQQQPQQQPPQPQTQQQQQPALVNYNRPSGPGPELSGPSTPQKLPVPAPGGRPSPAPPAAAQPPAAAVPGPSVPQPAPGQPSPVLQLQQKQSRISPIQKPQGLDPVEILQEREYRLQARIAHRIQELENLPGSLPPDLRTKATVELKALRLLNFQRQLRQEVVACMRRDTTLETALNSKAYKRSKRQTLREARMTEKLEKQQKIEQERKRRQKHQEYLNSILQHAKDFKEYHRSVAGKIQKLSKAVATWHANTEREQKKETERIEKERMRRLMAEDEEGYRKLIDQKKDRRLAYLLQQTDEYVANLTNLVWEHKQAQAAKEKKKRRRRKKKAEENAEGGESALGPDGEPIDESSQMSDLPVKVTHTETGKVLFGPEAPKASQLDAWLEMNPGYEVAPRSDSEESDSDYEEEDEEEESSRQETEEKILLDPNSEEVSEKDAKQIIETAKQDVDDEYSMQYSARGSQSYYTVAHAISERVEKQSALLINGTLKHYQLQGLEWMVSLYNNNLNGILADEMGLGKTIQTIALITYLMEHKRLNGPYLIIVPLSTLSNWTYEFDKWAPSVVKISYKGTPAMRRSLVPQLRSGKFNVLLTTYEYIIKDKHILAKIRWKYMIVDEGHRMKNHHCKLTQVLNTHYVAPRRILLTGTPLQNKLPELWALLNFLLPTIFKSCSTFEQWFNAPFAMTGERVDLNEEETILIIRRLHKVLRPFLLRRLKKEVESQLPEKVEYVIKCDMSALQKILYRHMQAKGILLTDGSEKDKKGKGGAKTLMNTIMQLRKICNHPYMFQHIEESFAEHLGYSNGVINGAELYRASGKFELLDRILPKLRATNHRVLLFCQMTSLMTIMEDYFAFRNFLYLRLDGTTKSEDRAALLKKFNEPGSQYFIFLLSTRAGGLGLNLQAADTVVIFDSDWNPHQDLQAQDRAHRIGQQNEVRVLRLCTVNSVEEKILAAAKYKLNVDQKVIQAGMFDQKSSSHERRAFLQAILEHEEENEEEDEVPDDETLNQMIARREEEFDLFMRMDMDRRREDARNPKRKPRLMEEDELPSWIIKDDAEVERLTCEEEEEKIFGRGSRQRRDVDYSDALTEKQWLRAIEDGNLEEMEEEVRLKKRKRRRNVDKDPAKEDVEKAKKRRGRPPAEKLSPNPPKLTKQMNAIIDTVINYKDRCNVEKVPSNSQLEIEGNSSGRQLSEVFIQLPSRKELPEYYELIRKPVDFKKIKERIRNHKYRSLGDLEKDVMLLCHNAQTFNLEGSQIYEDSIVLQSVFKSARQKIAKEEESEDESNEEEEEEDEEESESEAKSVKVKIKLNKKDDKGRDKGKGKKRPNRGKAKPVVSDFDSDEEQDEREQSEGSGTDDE
Chain of Histone acetyltransferase p300 (Homo sapiens) (Q09472 whole entry): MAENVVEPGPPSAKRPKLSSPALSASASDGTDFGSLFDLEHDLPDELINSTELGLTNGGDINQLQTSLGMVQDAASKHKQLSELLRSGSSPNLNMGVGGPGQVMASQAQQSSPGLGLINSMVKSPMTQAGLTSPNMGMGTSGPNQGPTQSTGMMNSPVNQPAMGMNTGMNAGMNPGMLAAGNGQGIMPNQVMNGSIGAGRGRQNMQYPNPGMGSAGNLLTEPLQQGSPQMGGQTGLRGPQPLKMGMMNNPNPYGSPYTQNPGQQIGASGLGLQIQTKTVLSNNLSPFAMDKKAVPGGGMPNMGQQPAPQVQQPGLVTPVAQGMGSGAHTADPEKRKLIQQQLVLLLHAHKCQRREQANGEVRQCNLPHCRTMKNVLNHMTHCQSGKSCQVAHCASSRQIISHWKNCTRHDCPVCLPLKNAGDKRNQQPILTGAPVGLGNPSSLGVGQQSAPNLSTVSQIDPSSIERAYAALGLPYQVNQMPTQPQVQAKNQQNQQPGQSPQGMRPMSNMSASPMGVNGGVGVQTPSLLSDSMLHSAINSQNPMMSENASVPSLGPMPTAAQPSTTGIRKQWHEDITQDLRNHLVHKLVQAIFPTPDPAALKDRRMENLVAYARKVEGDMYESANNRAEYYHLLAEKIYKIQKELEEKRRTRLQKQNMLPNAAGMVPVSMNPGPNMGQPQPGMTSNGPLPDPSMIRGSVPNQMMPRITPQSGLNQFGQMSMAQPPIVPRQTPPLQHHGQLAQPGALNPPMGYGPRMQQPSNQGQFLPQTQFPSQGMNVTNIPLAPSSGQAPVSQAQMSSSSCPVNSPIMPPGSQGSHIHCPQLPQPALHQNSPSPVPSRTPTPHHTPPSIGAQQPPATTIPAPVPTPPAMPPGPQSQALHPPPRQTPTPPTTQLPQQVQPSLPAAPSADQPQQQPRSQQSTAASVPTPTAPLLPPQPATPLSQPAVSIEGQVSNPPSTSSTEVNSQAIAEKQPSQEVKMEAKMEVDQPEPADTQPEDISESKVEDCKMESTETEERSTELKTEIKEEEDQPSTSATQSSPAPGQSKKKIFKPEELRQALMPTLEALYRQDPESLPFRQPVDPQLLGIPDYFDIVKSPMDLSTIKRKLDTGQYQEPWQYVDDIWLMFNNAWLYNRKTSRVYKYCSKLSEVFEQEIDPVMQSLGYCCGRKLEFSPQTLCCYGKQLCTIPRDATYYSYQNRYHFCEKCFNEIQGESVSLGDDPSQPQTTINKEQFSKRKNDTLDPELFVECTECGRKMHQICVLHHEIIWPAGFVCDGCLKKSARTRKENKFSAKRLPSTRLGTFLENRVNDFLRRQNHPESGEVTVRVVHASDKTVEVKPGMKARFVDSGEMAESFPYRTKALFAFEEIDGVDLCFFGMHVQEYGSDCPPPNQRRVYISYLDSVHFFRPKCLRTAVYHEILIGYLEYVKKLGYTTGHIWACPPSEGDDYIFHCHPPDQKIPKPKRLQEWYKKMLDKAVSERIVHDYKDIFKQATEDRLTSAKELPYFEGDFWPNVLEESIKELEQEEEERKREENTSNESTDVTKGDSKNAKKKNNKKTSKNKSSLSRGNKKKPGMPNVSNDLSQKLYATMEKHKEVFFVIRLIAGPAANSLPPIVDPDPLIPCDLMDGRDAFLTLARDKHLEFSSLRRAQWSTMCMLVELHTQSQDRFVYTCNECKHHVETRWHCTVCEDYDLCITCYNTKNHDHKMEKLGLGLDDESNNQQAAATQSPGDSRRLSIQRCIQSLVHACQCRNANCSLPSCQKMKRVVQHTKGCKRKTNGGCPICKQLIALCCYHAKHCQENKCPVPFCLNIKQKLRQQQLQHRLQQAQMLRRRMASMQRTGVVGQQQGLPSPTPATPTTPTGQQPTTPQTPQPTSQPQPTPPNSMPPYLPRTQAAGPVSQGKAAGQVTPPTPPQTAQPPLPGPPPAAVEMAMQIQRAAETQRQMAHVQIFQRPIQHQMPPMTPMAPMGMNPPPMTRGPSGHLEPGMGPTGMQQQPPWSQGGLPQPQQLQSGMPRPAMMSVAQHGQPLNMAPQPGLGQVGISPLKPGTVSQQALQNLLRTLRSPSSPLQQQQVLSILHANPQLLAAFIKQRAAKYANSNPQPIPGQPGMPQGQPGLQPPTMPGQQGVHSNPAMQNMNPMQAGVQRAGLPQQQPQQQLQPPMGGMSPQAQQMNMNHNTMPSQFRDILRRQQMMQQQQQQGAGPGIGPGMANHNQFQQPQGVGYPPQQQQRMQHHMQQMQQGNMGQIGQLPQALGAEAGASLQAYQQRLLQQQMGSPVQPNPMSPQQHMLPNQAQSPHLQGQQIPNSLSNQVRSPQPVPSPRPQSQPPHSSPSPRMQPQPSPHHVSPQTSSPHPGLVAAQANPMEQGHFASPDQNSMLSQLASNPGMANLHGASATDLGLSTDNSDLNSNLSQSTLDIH
Chain of Bromodomain-containing protein 2 (Homo sapiens) (P25440 whole entry, looked up): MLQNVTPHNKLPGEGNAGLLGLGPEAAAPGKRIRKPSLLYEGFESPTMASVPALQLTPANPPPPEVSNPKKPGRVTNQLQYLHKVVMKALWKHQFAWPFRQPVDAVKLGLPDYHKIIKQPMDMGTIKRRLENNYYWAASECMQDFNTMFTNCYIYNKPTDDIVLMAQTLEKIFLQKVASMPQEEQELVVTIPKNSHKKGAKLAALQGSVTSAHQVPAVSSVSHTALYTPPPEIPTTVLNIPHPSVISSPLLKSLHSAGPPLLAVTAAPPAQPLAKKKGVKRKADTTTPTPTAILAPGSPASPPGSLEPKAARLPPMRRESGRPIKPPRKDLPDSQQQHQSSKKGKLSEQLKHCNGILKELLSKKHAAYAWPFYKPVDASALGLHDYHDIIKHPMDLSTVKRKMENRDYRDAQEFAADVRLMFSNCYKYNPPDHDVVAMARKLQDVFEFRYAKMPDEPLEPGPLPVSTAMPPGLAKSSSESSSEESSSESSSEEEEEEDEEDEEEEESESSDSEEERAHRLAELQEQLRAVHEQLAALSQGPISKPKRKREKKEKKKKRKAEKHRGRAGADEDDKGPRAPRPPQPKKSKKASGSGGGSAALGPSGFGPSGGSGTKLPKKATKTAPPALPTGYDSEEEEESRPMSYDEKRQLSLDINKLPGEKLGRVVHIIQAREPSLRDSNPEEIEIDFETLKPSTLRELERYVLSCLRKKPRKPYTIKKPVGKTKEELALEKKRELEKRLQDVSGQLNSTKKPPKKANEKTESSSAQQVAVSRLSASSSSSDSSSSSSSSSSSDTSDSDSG

Cc1n[nH]c2ccc(-c3nc4cnc(N5CCN(C)CC5)cn4c3Nc3ccccc3)cc12
inhibition at 10 µM (MV4-11 [1]): 0% | ΔTm [2]: 5 °C | IC50 [3]: 6.1 µM

Cc1n[nH]c2ccc(-c3nc4cnc(N5CCN(C)CC5)cn4c3Nc3cccc(F)c3)cc12
inhibition at 10 µM (MV4-11 [1]): 18.5% | ΔTm [2]: 6.9 °C | IC50 [3]: 14.3 µM | inhibition at 10 µM (CWR22R [4]): 5.41%

Cc1n[nH]c2ccc(-c3nc4cnc(N5CCN(C)CC5)cn4c3Nc3ccc(F)c(Cl)c3)cc12
inhibition at 10 µM (MV4-11 [1]): 84.1% | IC50 (MV4-11 [5]): 2.85 µM | ΔTm [2]: 6 °C | IC50 (CWR22R [6]): 14 µM | IC50 [3]: 5.81 µM | inhibition at 10 µM (CWR22R [4]): 0.82%

COc1ccc(Nc2c(-c3ccc4[nH]nc(C)c4c3)nc3cnc(N4CCN(C)CC4)cn23)cc1
inhibition at 10 µM (MV4-11 [1]): 3.32% | ΔTm [2]: 5.3 °C | IC50 [3]: 20.5 µM | inhibition at 10 µM (CWR22R [4]): 0%

Cc1n[nH]c2ccc(-c3nc4cnc(N5CCN(C)CC5)cn4c3Nc3ccccc3Cl)cc12
inhibition at 10 µM (MV4-11 [1]): 58.1% | ΔTm [2]: 3.6 °C

Cc1n[nH]c2ccc(-c3nc4cnc(N5CCOCC5)cn4c3Nc3ccc(Cl)cc3)cc12
ΔTm [7]: -1.5 °C | inhibition at 10 µM (MV4-11 [1]): 84% | inhibition [8]: Active | ΔTm [9]: 0 °C | IC50 (MV4-11 [5]): 3.7 µM | ΔTm [2]: 7.5 °C | IC50 (CWR22R [6]): 15.8 µM | ΔTm [10]: 0 °C | ΔTm [11]: 1 °C | ΔTm [12]: -1.5 °C | IC50 [3]: 3.55 µM | ΔTm [13]: -1 °C | ΔTm [14]: -2 °C | inhibition at 10 µM (CWR22R [4]): 13.8% | ΔTm [15]: 2.3 °C

Cc1n[nH]c2ccc(-c3nc4cnc(N5CCN(C)CC5)cn4c3Nc3ccc(Br)cc3Cl)cc12
inhibition at 10 µM (MV4-11 [1]): 70.5% | IC50 (MV4-11 [5]): 9.22 µM | ΔTm [2]: 2.7 °C

Cc1n[nH]c2ccc(-c3nc4cnc(N5CCN(C)CC5)cn4c3Nc3cccc(Cl)c3)cc12
inhibition at 10 µM (MV4-11 [1]): 0% | ΔTm [2]: 6.3 °C

Cc1n[nH]c2ccc(-c3nc4cnc(N5CCC(C)CC5)cn4c3Nc3ccc(Cl)cc3)cc12
inhibition at 10 µM (MV4-11 [1]): 27.9% | ΔTm [2]: 2.1 °C | IC50 [3]: 20.4 µM | inhibition at 10 µM (CWR22R [4]): 12.6%

Cc1ccc(C)c(Nc2c(-c3ccc4[nH]nc(C)c4c3)nc3cnc(N4CCN(C)CC4)cn23)c1
inhibition at 10 µM (MV4-11 [1]): 0% | ΔTm [2]: 5.3 °C

Cc1n[nH]c2ccc(-c3nc4cnc(N5CCOCC5)cn4c3Nc3ccc(Br)cc3)cc12
inhibition at 10 µM (MV4-11 [1]): 45.9% | ΔTm [2]: 6.9 °C | IC50 [3]: 4.69 µM | inhibition at 10 µM (CWR22R [4]): 10.1%

Cc1n[nH]c2ccc(-c3nc4cnc(N5CCN(C)CC5)cn4c3Nc3ccccc3F)cc12
inhibition at 10 µM (MV4-11 [1]): 0% | ΔTm [2]: 6.9 °C | IC50 [3]: 9.89 µM | inhibition at 10 µM (CWR22R [4]): 0%

Cc1n[nH]c2ccc(-c3nc4cnc(N5CCN(C)CC5)cn4c3Nc3ccc(Cl)cc3Cl)cc12
inhibition at 10 µM (MV4-11 [1]): 78.8% | IC50 (MV4-11 [5]): 4.72 µM | ΔTm [2]: 2 °C | IC50 [3]: 16 µM | inhibition at 10 µM (CWR22R [4]): 9.53%

Cc1n[nH]c2ccc(-c3nc4cnc(N5CCOCC5)cn4c3Nc3ccccc3)cc12
inhibition at 10 µM (MV4-11 [1]): 0% | ΔTm [2]: 6.1 °C | IC50 (CWR22R [6]): 38.2 µM | IC50 [3]: 3.79 µM

Cc1n[nH]c2ccc(-c3nc4cnc(N5CCOCC5)cn4c3Cc3ccc(Cl)cc3)cc12
inhibition at 10 µM (MV4-11 [1]): 0% | ΔTm [2]: 6.6 °C

Cc1n[nH]c2ccc(-c3nc4cnc(N5CCN(C)CC5)cn4c3Nc3ccc(F)cc3)cc12
inhibition at 10 µM (MV4-11 [1]): 0% | IC50 (MV4-11 [5]): 32.3 µM | ΔTm [2]: 6.5 °C | IC50 (CWR22R [6]): 33.6 µM | IC50 [3]: 4.17 µM

Cc1n[nH]c2ccc(-c3nc4cnc(N5CCN(C)CC5)cn4c3Nc3cc(Cl)ccc3Cl)cc12
inhibition at 10 µM (MV4-11 [1]): 23.8% | ΔTm [2]: 3.9 °C | IC50 [3]: 3.61 µM | inhibition at 10 µM (CWR22R [4]): 3.8%

Cc1n[nH]c2ccc(-c3nc4cnc(N5CCN(C)CC5)cn4c3Nc3ccc(F)cc3Br)cc12
inhibition at 10 µM (MV4-11 [1]): 82.4% | IC50 (MV4-11 [5]): 3.83 µM | ΔTm [2]: 5.1 °C | IC50 [3]: 7.48 µM | inhibition at 10 µM (CWR22R [4]): 4.41%

Cc1n[nH]c2ccc(-c3nc4cnc(N5CCN(C)CC5)cn4c3Nc3ccc(Cl)cc3)cc12
inhibition at 10 µM (MV4-11 [1]): 83.7% | IC50 (MV4-11 [5]): 3.51 µM | ΔTm [2]: 5 °C | IC50 [3]: 6.35 µM | inhibition at 10 µM (CWR22R [4]): 8.11%

COc1ccc(Nc2c(-c3ccc4[nH]nc(C)c4c3)nc3cnc(N4CCOCC4)cn23)cc1
inhibition at 10 µM (MV4-11 [1]): 11.5% | ΔTm [2]: 6.9 °C | IC50 [3]: 5.15 µM | inhibition at 10 µM (CWR22R [4]): 1.2%

Cc1sc2c(c1C)C(c1ccc(Cl)cc1)=N[C@@H](CC(=O)OC(C)(C)C)c1nnc(C)n1-2
inhibition (INH) (MV4-11 [1]; time 96-120 hrs): 90.01% | IC50 (MV4-11 [5]): 0.017 µM | IC50 (CWR22R [6]): 0.033 µM | ΔTm [10]: -0.5 °C | inhibition (INH) (CWR22R [4]; time 96-120 hrs): 82.88%

Cc1cc(Br)ccc1Nc1c(-c2ccc3[nH]nc(C)c3c2)nc2cnc(N3CCN(C)CC3)cn12
inhibition at 10 µM (MV4-11 [1]): 59.4% | IC50 (MV4-11 [5]): 10.8 µM | ΔTm [2]: 3.7 °C | IC50 (CWR22R [6]): 6.51 µM

Cc1n[nH]c2ccc(-c3nc4cnc(N5CCN(C)CC5)cn4c3Nc3ccc(Br)cc3)cc12
inhibition at 10 µM (MV4-11 [1]): 83% | IC50 (MV4-11 [5]): 2.6 µM | ΔTm [2]: 7.2 °C | IC50 [3]: 6.94 µM | inhibition at 10 µM (CWR22R [4]): 11.7%

Cc1n[nH]c2ccc(-c3nc4cnc(N5CCN(C)CC5)cn4c3Nc3ccc(I)cc3)cc12
inhibition at 10 µM (MV4-11 [1]): 0% | ΔTm [2]: 4.5 °C

COc1ccc(Nc2c(-c3ccc4[nH]nc(C)c4c3)nc3cnc(N4CCN(C)CC4)cn23)cc1OC
inhibition at 10 µM (MV4-11 [1]): 6.27% | ΔTm [2]: 6.9 °C | IC50 [3]: 12.7 µM | inhibition at 10 µM (CWR22R [4]): 0%

COc1cc(-c2nc3cnccn3c2Nc2ccccc2)ccc1O
inhibition [16]: 40%

Cc1n[nH]c2ccc(-c3nc4cnc(N5CCN(C)CC5)cn4c3Nc3ccc(Cl)cc3F)cc12
inhibition at 10 µM (MV4-11 [1]): 0% | IC50 (MV4-11 [5]): 10.3 µM | ΔTm [2]: 4.5 °C | IC50 (CWR22R [6]): 14.1 µM | IC50 [3]: 6.78 µM
